Source: the supplement of paper PMC10307832

What was measured:
Assay in all cases: relative viability (nuclei count vs DMSO), 5 days (fraction); higher = more cells survive
AZD8055 + Palbociclib = compound: COc1ccc(-c2ccc3c(N4CCOC[C@@H]4C)nc(N4CCOC[C@@H]4C)nc3n2)cc1CO [AZD8055] + CC(=O)c1c(C)c2cnc(Nc3ccc(N4CCNCC4)cn3)nc2n(C2CCCC2)c1=O [Palbociclib] (partner 0.5 µM)
Method in brief: (§1)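 After 5 days of treatment, lung cancer cells in 1536-well plates were fixed and stained in a single step (final 0.05% Triton X-100, 1% formaldehyde, 1 ug/ml Hoechst) and their nuclei counted on 4× images. Treatment had been applied by pin tool the day after seeding as one drug alone or as a fixed anchor-drug dose with five library-drug doses (not always all listed) in √10 steps. Relative viability is the nuclei count of treated wells divided by that of vehicle wells, and values are medians of duplicate plates.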

AZD8055 + OSI-027 = compound: COc1ccc(-c2ccc3c(N4CCOC[C@@H]4C)nc(N4CCOC[C@@H]4C)nc3n2)cc1CO [AZD8055] + COc1cccc2cc(-c3nc([C@H]4CC[C@H](C(=O)O)CC4)n4ncnc(N)c34)[nH]c12 [OSI-027] (partner 0.5 µM)
Method in brief: as §1

AZD8055 + Foretinib = compound: COc1ccc(-c2ccc3c(N4CCOC[C@@H]4C)nc(N4CCOC[C@@H]4C)nc3n2)cc1CO [AZD8055] + COc1cc2c(Oc3ccc(NC(=O)C4(C(=O)Nc5ccc(F)cc5)CC4)cc3F)ccnc2cc1OCCCN1CCOCC1 [Foretinib] (partner 0.25 µM)
Method in brief: as §1

AZD8055 = compound: COc1ccc(-c2ccc3c(N4CCOC[C@@H]4C)nc(N4CCOC[C@@H]4C)nc3n2)cc1CO [AZD8055]
Method in brief: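 Lung cancer cell lines in 1536-well plates were kept overnight at 37 °C, then pinned with five library-drug doses (not always all listed) spaced by √10 on vehicle-anchored plates. After 5 days without medium change, cells were fixed, permeabilised and Hoechst-stained in one step, imaged at 4×, and nuclei were counted with MetaXpress. Viability is treated-well nuclei divided by vehicle-well nuclei, taken as the median over plates. Plates passed only with control CV below 25% and at least one doubling.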

Row | Cell Line | relative viability (AZD8055 + Palbociclib; first compound 0.01 µM) | relative viability (AZD8055 + Palbociclib; first compound 0.03162 µM) | relative viability (AZD8055 + Palbociclib; first compound 0.1 µM) | relative viability (AZD8055 + Palbociclib; first compound 0.3162 µM) | relative viability (AZD8055 + Palbociclib; first compound 1 µM) | relative viability (AZD8055 + OSI-027; first compound 0.01 µM) | relative viability (AZD8055 + OSI-027; first compound 0.03162 µM) | relative viability (AZD8055 + OSI-027; first compound 0.1 µM) | relative viability (AZD8055 + OSI-027; first compound 0.3162 µM) | relative viability (AZD8055 + OSI-027; first compound 1 µM) | relative viability (AZD8055 + Foretinib; first compound 0.01 µM) | relative viability (AZD8055 + Foretinib; first compound 0.03162 µM) | relative viability (AZD8055 + Foretinib; first compound 0.1 µM) | relative viability (AZD8055 + Foretinib; first compound 0.3162 µM) | relative viability (AZD8055 + Foretinib; first compound 1 µM) | relative viability (AZD8055; 0.01 µM) | relative viability (AZD8055; 0.03162 µM) | relative viability (AZD8055; 0.1 µM) | relative viability (AZD8055; 0.3162 µM) | relative viability (AZD8055; 1 µM)
1 | HCC-78 | 0.492 | 0.529 | 0.379 | 0.437 | 0.463 | 0.415 | 0.392 | 0.326 | 0.352 | 0.366 | 0.496 | 0.527 | 0.388 | 0.417 | 0.308 | 1.03 | 0.837 | 0.615 | 0.395 | 0.457
2 | HCC-366 | 0.311 | 0.199 | 0.0939 | 0.0508 | 0.0399 | 1.08 | 1.01 | 0.845 | 0.437 | 0.288 | 0.979 | 0.913 | 0.687 | 0.428 | 0.417 | 1.11 | 0.963 | 0.907 | 0.698 | 0.354
3 | HCC-827 | 0.482 | 0.406 | 0.381 | 0.227 | 0.181 | 0.798 | 0.746 | 0.809 | 0.604 | 0.641 | 1.14 | 0.98 | 1.02 | 0.424 | 0.337 | 1.13 | 1.1 | 1.11 | 0.876 | 0.768
4 | HOP-62 | 0.428 | 0.441 | 0.414 | 0.171 | 0.172 | 0.902 | 0.795 | 0.87 | 0.585 | 0.453 | 1.01 | 1.01 | 1.09 | 0.609 | 0.521 | 1.09 | 0.922 | 1.08 | 0.639 | 0.54
5 | IA-LM | – | – | – | – | – | – | – | – | – | – | 0.933 | 0.659 | 0.567 | 0.169 | 0.126 | 0.98 | 0.651 | 0.241 | 0.103 | 0.116
6 | LC-2-ad | 0.534 | 0.471 | 0.438 | 0.388 | 0.312 | 0.937 | 0.864 | 0.706 | 0.618 | 0.523 | 1.05 | 0.855 | 0.652 | 0.58 | 0.469 | 1.04 | 1.04 | 0.922 | 0.621 | 0.529
7 | LCLC-97TM1 | 0.205 | 0.164 | 0.129 | 0.0928 | 0.0897 | 0.502 | 0.472 | 0.577 | 0.422 | 0.415 | 0.963 | 0.74 | 0.671 | 0.417 | 0.529 | 1.04 | 0.822 | 0.453 | 0.246 | 0.205
8 | LCLC-103H | 0.52 | 0.48 | 0.398 | 0.468 | 0.421 | 0.444 | 0.437 | 0.44 | 0.356 | 0.32 | 0.72 | 0.616 | 0.583 | 0.359 | 0.281 | 0.945 | 0.86 | 0.86 | 0.609 | 0.519
9 | LK-2 | 0.387 | 0.399 | 0.347 | 0.17 | 0.102 | 0.22 | 0.242 | 0.209 | 0.166 | 0.186 | 0.938 | 0.938 | 0.648 | 0.292 | 0.142 | 0.84 | 0.641 | 0.508 | 0.24 | 0.195
10 | LOU-NH91 | 0.531 | 0.536 | 0.589 | 0.552 | 0.497 | 0.775 | 0.797 | 0.66 | 0.569 | 0.556 | 0.982 | 0.891 | 0.761 | 0.562 | 0.561 | 0.931 | 0.934 | 0.724 | 0.633 | 0.624
11 | LU99A | 0.312 | 0.285 | 0.167 | 0.198 | 0.2 | 0.297 | 0.311 | 0.322 | 0.264 | 0.254 | 0.859 | 0.627 | 0.681 | 0.264 | 0.302 | 1.07 | 0.54 | 0.461 | 0.261 | 0.253
12 | LXF-289 | 0.621 | 0.581 | 0.578 | 0.3 | 0.23 | 0.891 | 0.899 | 0.727 | 0.693 | 0.625 | 1.05 | 1.02 | 0.962 | 0.763 | 0.72 | 1.07 | 1.05 | 1.01 | 0.909 | 0.768
13 | NCI-H596 | – | – | – | – | – | 0.685 | 0.731 | 0.582 | 0.413 | 0.315 | 0.79 | 0.551 | 0.474 | 0.319 | 0.335 | 0.953 | 0.762 | 0.683 | 0.469 | 0.406
14 | NCI-H1299 | – | – | – | – | – | – | – | – | – | – | 1.19 | 1.18 | 1.14 | 0.863 | 0.528 | 1.04 | 1.06 | 1.04 | 0.807 | 0.415
15 | NCI-H1563 | – | – | – | – | – | 0.776 | 0.731 | 0.681 | 0.629 | 0.599 | 0.913 | 0.723 | 0.725 | 0.635 | 0.645 | 0.844 | 0.791 | 0.719 | 0.604 | 0.684
16 | NCI-H1648 | 0.251 | 0.332 | 0.201 | 0.235 | 0.241 | 0.27 | 0.235 | 0.289 | 0.234 | 0.296 | – | – | – | – | – | 0.642 | 0.745 | 0.542 | 0.271 | 0.326
17 | NCI-H1703 | – | – | – | – | – | – | – | – | – | – | 0.34 | 0.32 | 0.306 | 0.301 | 0.226 | 0.822 | 0.715 | 0.634 | 0.265 | 0.332
18 | NCI-H1792 | 0.677 | 0.585 | 0.417 | 0.359 | 0.307 | 0.799 | 0.674 | 0.574 | 0.431 | 0.26 | – | – | – | – | – | 0.951 | 0.612 | 0.325 | 0.171 | 0.216
